One assay concerns the target T1, hMR1^R9H (Homo sapiens, UniProt Q95460, R31H).
T1 construct: plasmids encoding for the extracellular domains of MR1, β2m, and the AF-7 TCRα and TCRβ chains; made in house; host or cells: Escherichia coli BL21(DE3), inclusion bodies
Nature of the assay: In vitro refolding of MR1 R9H mutant with ligand. The class given is binding. The text has this: We then tested the effect of the RF catabolites on the expression of two mutant versions of MR1 termed MR1^R9H ([Howson et al., 2020]) and MR1^K43A ([Reantragoon et al., 2013]). First, we tested the MR1^R9H mutant ([Howson et al., 2020]) which represents a rare, natural human polymorph. […] When C1R. […] Next, we tested sought to understand how the previously characterised Lys43A mutation affects ligand binding. […] While this is in line with the ability of these ligands to bind MR1, the reason for MR1^K43A cell surface accumulation is less clear. The most likely explanation is that these ligands bind ER-resident MR1^K43A, in line with our data using wild-type MR1; however, because the K43A mutation results in spontaneous MR1 surface egress, the presence of these stabilising ligands promotes enhanced trafficking and/or retention at the cell surface. We cannot rule out however that the ligands may also bind directly to surface MR1^K43A and slow down the recycling from cell surface.
Escherichia coli BL21(DE3) cells were transformed with plasmids encoding for the extracellular domains of MR1, β2m, and the AF-7 TCRα and TCRβ chains ([Kjer-Nielsen et al., 2012]; [Patel et al., 2013]; [Wang et al., 2022a]). The proteins were then expressed, and the inclusion bodies were purified, cleaned, and used for refolding. […]

In a further assay the test system is C1R.MR1 cells. Nature of the assay: Endo H treatment and western blot of intracellular MR1. In kind it is cell-based. Conditions: C1R.MR1, 16 h; RF and catabolites 100 μM, Ac-6-FP 10 μM. As for the experimental part: The downregulation of MR1 on the cell surface by the RF catabolites could be due to the depletion of the intracellular ER-resident MR1 pool, or by retention of MR1 in the ER, as shown for the DB28 ligand ([Salio et al., 2020]). To investigate this, C1R.MR1 cells were treated for 16 h with 100 μM of RF or RF catabolites, conditions which induce MR1 downregulation (Fig. 3A). Cells were lysed, and treated with endoglycosidase (Endo) H, to distinguish molecules that remain within the ER from those that have trafficked to the cell surface ([McWilliam et al., 2016]), then MR1 levels were assessed by immunoblotting (Fig. 3A).
Figure 3. […] S, Endo H–susceptible MR1; R, Endo H–resistant MR1. The Endo H–susceptible MR1 and Endo H–resistant MR1 fractions were quantified in at least two independent experiments. (b) Intracellular total MR1 level was also measured in C1R.MR1 cells by flow cytometry after treating the cells with the indicated ligands (100 μM) for 16h followed by permeabilization and staining with anti-MR1-PE (8F2.F9). Shown are the overlay histograms (top) and a bar chart depicting the geometric mean fluorescence intensity (gMFI) fold change of intracellular MR1 level (bottom) from three independent experiments performed in duplicates, with standard error (SEM) represented by the error bars. […]
For orientation: In western blotting, separated proteins are transferred to a membrane and probed.

Another assay has as its system THP-1.MR1 cells. Nature of the assay: Competition with Ac-6-FP-induced MR1 upregulation, THP-1.MR1. Conditions: 1–200 μM overnight, then 10 μM Ac-6-FP 3 h. The class given is cell-based.

T1 sequence (Q95460 23-302 R31H): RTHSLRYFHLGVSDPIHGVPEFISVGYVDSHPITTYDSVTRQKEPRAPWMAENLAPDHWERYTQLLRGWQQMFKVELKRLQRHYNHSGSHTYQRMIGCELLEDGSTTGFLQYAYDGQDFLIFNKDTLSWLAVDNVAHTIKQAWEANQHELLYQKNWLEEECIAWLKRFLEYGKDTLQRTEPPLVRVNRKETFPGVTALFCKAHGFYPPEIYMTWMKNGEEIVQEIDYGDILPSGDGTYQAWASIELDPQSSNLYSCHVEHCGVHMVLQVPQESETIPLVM
T1 sequence (P61769 21-119 partner): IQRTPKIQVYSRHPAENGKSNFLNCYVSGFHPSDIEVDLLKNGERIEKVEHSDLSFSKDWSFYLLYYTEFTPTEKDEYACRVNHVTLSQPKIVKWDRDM

Turning to `Cc1cc2nc3[nH]c(=O)[nH]c(=O)c3nc2cc1C` [Lumichrome, 7,8-dimethylalloxazine], at hMR1^R9H, the “refolding with hMR1^R9H in solution” value is given as “did not refold”.
As for `Cc1cc2nc3c(=O)[nH]c(=O)nc-3n(C[C@H](O)[C@H](O)[C@H](O)CO)c2cc1C` [RF, Riboflavin], the “Endo H-resistant MR1” value with C1R.MR1 cells is reported as “Neither RF nor its catabolites induced any Endo H-resistant MR1”. Besides, the “effect on Ac-6-FP-induced cell surface upregulation of MR1” value with THP-1.MR1 cells is on record as “did not modulate”.

Values taken from paper doi:10.1101/2025.07.20.665728 (bioRxiv, 2025).
